Reference: patent publication US20260130933A1, “PHARMACEUTICAL COMPOSITION FOR PREVENTION OR TREATMENT OF NEPHROPATHY AND/OR DIABETES MELLITUS, COMPRISING ENAVOGLIFLOZIN” (DAEWOONG PHARMACEUTICAL CO., LTD., priority 2022, published 2026)

Test: Example 1: phase 3 trial, enavogliflozin 0.3 mg once a day as monotherapy vs placebo for 24 weeks in patients with type 2 diabetes (HbA1c, FPG, C-peptide, body weight, lipids, blood pressure, HOMA, UACR, UGCR, adiponectin, leptin, safety)
Assay type: in vivo, human
Settings: for Adiponectin, Mean (SD) / Adiponectin, Median / HOMA-IR, Mean (SD) / HOMA-IR, Median / HOMA-β, Mean (SD) / HOMA-β, Median / Leptin, Mean (SD) / Leptin, Median / UACR, Mean (SD) / UACR, Median / UGCR, Mean (SD) / UGCR, Median / Change from baseline in HOMA-IR, ANCOVA LS mean (SE) / Change from baseline in HOMA-IR, Mean (SD) / Change from baseline in HOMA-IR, Median / Change from baseline in HOMA-β, ANCOVA LS mean (SE) / Change from baseline in HOMA-β, Mean (SD) / Change from baseline in HOMA-β, Median / Change from baseline in UACR, ANCOVA LS mean (SE) / Change from baseline in UACR, Mean (SD) / Change from baseline in UACR, Median / Change from baseline in UGCR, ANCOVA LS mean (SE) / Change from baseline in UGCR, Mean (SD) / Change from baseline in UGCR, Median / Change from baseline in adiponectin, ANCOVA LS mean (SE) / Change from baseline in adiponectin, Mean (SD) / Change from baseline in adiponectin, Median / Change from baseline in leptin, ANCOVA LS mean (SE) / Change from baseline in leptin, Mean (SD) / Change from baseline in leptin, Median / Change from baseline in HOMA-IR, ANCOVA LS mean difference / Change from baseline in HOMA-β, ANCOVA LS mean difference / Change from baseline in UACR, ANCOVA LS mean difference / Change from baseline in UGCR, ANCOVA LS mean difference / Change from baseline in adiponectin, ANCOVA LS mean difference / Change from baseline in leptin, ANCOVA LS mean difference: LOCF, full analysis set; for Adiponectin, Mean (SD) / Adiponectin, Median / HOMA-IR, Mean (SD) / HOMA-IR, Median / HOMA-β, Mean (SD) / HOMA-β, Median / Leptin, Mean (SD) / Leptin, Median / UACR, Mean (SD) / UACR, Median / UGCR, Mean (SD) / UGCR, Median / Change from baseline in HOMA-IR, ANCOVA LS mean (SE) / Change from baseline in HOMA-IR, Mean (SD) / Change from baseline in HOMA-IR, Median / Change from baseline in HOMA-β, ANCOVA LS mean (SE) / Change from baseline in HOMA-β, Mean (SD) / Change from baseline in HOMA-β, Median / Change from baseline in UACR, ANCOVA LS mean (SE) / Change from baseline in UACR, Mean (SD) / Change from baseline in UACR, Median / Change from baseline in UGCR, ANCOVA LS mean (SE) / Change from baseline in UGCR, Mean (SD) / Change from baseline in UGCR, Median / Change from baseline in adiponectin, ANCOVA LS mean (SE) / Change from baseline in adiponectin, Mean (SD) / Change from baseline in adiponectin, Median / Change from baseline in leptin, ANCOVA LS mean (SE) / Change from baseline in leptin, Mean (SD) / Change from baseline in leptin, Median: 0.3 mg; for Change from baseline in HOMA-IR, ANCOVA LS mean difference / Change from baseline in HOMA-β, ANCOVA LS mean difference / Change from baseline in UACR, ANCOVA LS mean difference / Change from baseline in UGCR, ANCOVA LS mean difference / Change from baseline in adiponectin, ANCOVA LS mean difference / Change from baseline in leptin, ANCOVA LS mean difference: 0.3 mg vs placebo
Method: When a subject voluntarily gave written consent to participate in this clinical trial, a screening test was conducted. […] However, when the administration of a hypoglycemic agent was interrupted before the clinical trial Visit 1 (screening), at least an 8-week washout period, including the discontinuation period, was required, and during this period, a stable diet and exercise program was followed. Naïve patients were screened without a separate washout period, and the criteria for naïve patients were defined as patients who had not been administered hypoglycemic agents within 24 weeks prior to the date of obtaining written consent. […] In addition, they were instructed to maintain regular exercise and dietary control starting from 8 weeks prior to screening without changing their daily life patterns during the clinical trial period.

OC[C@H]1O[C@@H](c2cc(Cc3ccc(C4CC4)cc3)c(Cl)c3c2CCO3)[C@H](O)[C@@H](O)[C@@H]1O [Enavogliflozin, (2S,3R,4R,5S,6R)-2-(7-chloro-6 (4-cyclopropylbenzyl)-2,3-dihydrobenzofuran-4-yl)-6-(hydroxymethyl)tetrahydro-2H-pyran-3,4,5-triol]
Occurrence rates of adverse events or adverse drug reactions compared to the control (24 weeks, vs placebo): no statistically significant differences
Adiponectin, Mean (SD) (Baseline): 7.79 µg/mL
Adiponectin, Median (Baseline): 6.22 µg/mL
HOMA-IR, Mean (SD) (Baseline): 3.47
HOMA-IR, Median (Baseline): 2.67
HOMA-β, Mean (SD) (Baseline): 46.40
HOMA-β, Median (Baseline): 36.25
Leptin, Mean (SD) (Baseline): 11.16 ng/mL
Leptin, Median (Baseline): 6.94 ng/mL
UACR, Mean (SD) (Baseline): 28200 mg/kg
UACR, Median (Baseline): 10.50 g/kg
UGCR, Mean (SD) (Baseline): 1.42 mg/mg
UGCR, Median (Baseline): 10.11 mg/mg
Adiponectin, Mean (SD) (Week 6): 7.91 µg/mL
Adiponectin, Median (Week 6): 6.67 µg/mL
Change from baseline in HOMA-IR, ANCOVA LS mean (SE) (Week 6): −1.75
Change from baseline in HOMA-IR, Mean (SD) (Week 6): −1.53
Change from baseline in HOMA-IR, Median (Week 6): −0.96
Change from baseline in HOMA-β, ANCOVA LS mean (SE) (Week 6): 3.20
Change from baseline in HOMA-β, Mean (SD) (Week 6): 3.95
Change from baseline in HOMA-β, Median (Week 6): 3.10
Change from baseline in UACR, ANCOVA LS mean (SE) (Week 6): 1.45 g/kg
Change from baseline in UACR, Mean (SD) (Week 6): 3660 mg/kg
Change from baseline in UACR, Median (Week 6): 0.80 g/kg
Change from baseline in UGCR, ANCOVA LS mean (SE) (Week 6): 55.38 mg/mg
Change from baseline in UGCR, Mean (SD) (Week 6): 53.23 mg/mg
Change from baseline in UGCR, Median (Week 6): 50.85 mg/mg
Change from baseline in adiponectin, ANCOVA LS mean (SE) (Week 6): 0.22 µg/mL
Change from baseline in adiponectin, Mean (SD) (Week 6): 0.31 µg/mL
Change from baseline in adiponectin, Median (Week 6): 0.48 µg/mL
Change from baseline in leptin, ANCOVA LS mean (SE) (Week 6): -2.82 ng/mL
Change from baseline in leptin, Mean (SD) (Week 6): -2.48 ng/mL
Change from baseline in leptin, Median (Week 6): -1.13 ng/mL
HOMA-IR, Mean (SD) (Week 6): 1.96
HOMA-IR, Median (Week 6): 1.62
HOMA-β, Mean (SD) (Week 6): 50.65
HOMA-β, Median (Week 6): 40.10
Leptin, Mean (SD) (Week 6): 8.61 ng/mL
Leptin, Median (Week 6): 5.75 ng/mL
UACR, Mean (SD) (Week 6): 32120 mg/kg
UACR, Median (Week 6): 11.30 g/kg
UGCR, Mean (SD) (Week 6): 54.67 mg/mg
UGCR, Median (Week 6): 51.06 mg/mg
Change from baseline in HOMA-IR, ANCOVA LS mean difference (Week 6): −1.81
Change from baseline in HOMA-β, ANCOVA LS mean difference (Week 6): 3.30
Change from baseline in UACR, ANCOVA LS mean difference (Week 6): 7.96 g/kg
Change from baseline in UGCR, ANCOVA LS mean difference (Week 6): 52.97 mg/mg
Change from baseline in adiponectin, ANCOVA LS mean difference (Week 6): 0.26 µg/mL
Change from baseline in leptin, ANCOVA LS mean difference (Week 6): -2.89 ng/mL
Adiponectin, Mean (SD) (Week 12): 8.57 µg/mL
Adiponectin, Median (Week 12): 6.59 µg/mL
Change from baseline in HOMA-IR, ANCOVA LS mean (SE) (Week 12): −1.60
Change from baseline in HOMA-IR, Mean (SD) (Week 12): −1.50
Change from baseline in HOMA-IR, Median (Week 12): −1.09
Change from baseline in HOMA-β, ANCOVA LS mean (SE) (Week 12): 13.51
Change from baseline in HOMA-β, Mean (SD) (Week 12): 12.44
Change from baseline in HOMA-β, Median (Week 12): 7.15
Change from baseline in UACR, ANCOVA LS mean (SE) (Week 12): -4.45 g/kg
Change from baseline in UACR, Mean (SD) (Week 12): -7760 mg/kg
Change from baseline in UACR, Median (Week 12): 0.60 g/kg
Change from baseline in UGCR, ANCOVA LS mean (SE) (Week 12): 52.58 mg/mg
Change from baseline in UGCR, Mean (SD) (Week 12): 52.43 mg/mg
Change from baseline in UGCR, Median (Week 12): 51.21 mg/mg
Change from baseline in adiponectin, ANCOVA LS mean (SE) (Week 12): 0.94 µg/mL
Change from baseline in adiponectin, Mean (SD) (Week 12): 0.78 µg/mL
Change from baseline in adiponectin, Median (Week 12): 0.65 µg/mL
Change from baseline in leptin, ANCOVA LS mean (SE) (Week 12): -2.35 ng/mL
Change from baseline in leptin, Mean (SD) (Week 12): -2.38 ng/mL
Change from baseline in leptin, Median (Week 12): -1.15 ng/mL
HOMA-IR, Mean (SD) (Week 12): 1.97
HOMA-IR, Median (Week 12): 1.53
HOMA-β, Mean (SD) (Week 12): 58.83
HOMA-β, Median (Week 12): 42.30
Leptin, Mean (SD) (Week 12): 8.78 ng/mL
Leptin, Median (Week 12): 6.26 ng/mL
UACR, Mean (SD) (Week 12): 20430 mg/kg
UACR, Median (Week 12): 11.15 g/kg
UGCR, Mean (SD) (Week 12): 53.85 mg/mg
UGCR, Median (Week 12): 51.70 mg/mg
Change from baseline in HOMA-IR, ANCOVA LS mean difference (Week 12): −1.72
Change from baseline in HOMA-β, ANCOVA LS mean difference (Week 12): 12.09
Change from baseline in UACR, ANCOVA LS mean difference (Week 12): -15.16 g/kg
Change from baseline in UGCR, ANCOVA LS mean difference (Week 12): 51.21 mg/mg
Change from baseline in adiponectin, ANCOVA LS mean difference (Week 12): 0.67 µg/mL
Change from baseline in leptin, ANCOVA LS mean difference (Week 12): -3.17 ng/mL
Adiponectin, Mean (SD) (Week 18): 8.62 µg/mL
Adiponectin, Median (Week 18): 6.76 µg/mL
Change from baseline in HOMA-IR, ANCOVA LS mean (SE) (Week 18): −1.55
Change from baseline in HOMA-IR, Mean (SD) (Week 18): −1.48
